Results taken from patent publication US8637528B2, “Use of PDE7 inhibitors for the treatment of movement disorders” (Omeros Corporation, priority 2007, dated 2014).

Columns and labels:
PDE2A = PDE2A (Homo sapiens (Human), UniProt O00408); assay: PDE selectivity SPA assay, PDE2A; assay type: biochemical; details: IC50 against PDE2A divided by IC50 against PDE7A
Method: (§1) Phosphodiesterase activity was measured by a scintillation proximity assay (SPA, GE Healthcare: Product Code TRKQ7100) with [^3H]-cAMP as the substrate for PDEs 3A, 4A, 8A, or with [^3H]-cGMP as the substrate for PDEs 1B, 2A, 5A, 9A, 10A and 11A. Purified human PDE1B, PDE2A, PDE3A, PDE4A, PDE5A, PDE8A, PDE9A and PDE11A4 were obtained from BPS Bioscience, San Diego, Calif. Purified murine PDE10A was also obtained from BPS Biosciences. […] Therefore, the results obtained using murine PDE10A are believed to be representative of human PDE10.
(§2) The purified PDE enzymes were each diluted and stored in a solution containing 25 mM Tris-Cl (pH 8.0), 100 mM NaCl, 0.05% Tween 20, 50% glycerol, and 3 mM DTT. PDE assays were carried out in the following assay cocktail (final concentrations): 50 mM Tris-Cl (pH 8.0), 8.3 mM MgCl2, 1.7 mM EGTA, 0.5 mg/ml BSA, 2.5% DMSO and between 0.2 ng and 6 ng of the PDE protein (depending on the enzyme activity) in a final volume of 0.1 mL.
(§3) Reactions were initiated by addition of enzyme, incubated for 20 minutes at 30° C. and then terminated by the addition of 50 μl of SPA beads containing Zn^2+.
(§4) The mixture was shaken, and allowed to settle for 3 hours. Then the production of [^3H]-AMP or [^3H]-GMP from the substrate was quantitated by scintillation counting in a Wallac® plate counter. […]

PDE5A = PDE5A (Homo sapiens (Human), UniProt O76074); assay: PDE selectivity SPA assay, PDE5A; assay type: biochemical; details: IC50 against PDE5A divided by IC50 against PDE7A
Method: as §1, §2, §3, §4

[1] = plasma and brain concentration in mice after intraperitoneal injection (LC/MS/MS); assay type: in vivo, mouse
Method: Adult male C57BL/6J; retired breeders, aged between 7-9 months (Jackson Laboratory, Bar Harbor, Me., USA), singly housed.
Just prior to the harvesting of tissues, mice were anesthetized with avertin. Samples of whole brain or plasma were collected from three animals per time point at 15 minutes, 30 minutes, 60 minutes, 120 minutes, and 240 minutes after injection. Blood samples were collected by retro-orbital bleeding. Plasma was prepared and red cells were removed by centrifugation. The mice were perfused with saline to remove contaminating blood. The brains were removed and rapidly frozen in liquid nitrogen for subsequent analysis. The plasma and brain samples were stored at −80° C. or on dry ice and the concentration of compound was determined by LC/MS/MS analysis as follows:
Whole brain tissue was homogenized using a Mini-Beaddeater-8™ (BioSpec Products, Bartlesville, Okla.). Plasma or homogenized brain samples were precipitated with acetonitrile and filtered in 96-well format using Captiva 0.20 micron filtration plates (Varian Corp, Lake Forest, Calif.). Filtrates were evaporated under nitrogen to dryness at 50° C. and were then reconstituted for LC-MS analysis.
Quantitative measurements for inhibitory compound in plasma and brain samples were obtained using a Thermo Ultra triple quadrupole mass spectrometer (Thermo Fisher Scientific, San Jose, Calif.), utilizing electrospray ionization in the multiple reaction monitoring mode of data acquisition. Sample extracts were injected onto a 2.1×30 mm packed Xterra C18-MS high pressure liquid chromatography (HPLC) column (Waters Corp, Milford, Mass.). The mobile phase eluting the compound from the HPLC column was applied using a Thermo Surveyor MS Plus HPLC quaternary pumping system (Thermo Fisher Scientific, San Jose, Calif.) and a HTC PAL autoinjector (LEAP Technologies, Chapel Hill, N.C.).

PDE7B = PDE7B (Homo sapiens (Human), UniProt Q9NP56); assay: PDE7 phosphodiesterase scintillation proximity assay (SPA), PDE7B; assay type: biochemical; details: for Fold Selectivity for PDE7A versus PDE7B: IC50 against PDE7B divided by IC50 against PDE7A; for 7A/7B Ratio: ratio of the PDE7B and PDE7A IC50 values; for selectivity for inhibition of the PDE7B enzyme as compared to the other PDEs: versus PDE1B, 2A, 3A, 4A, 5A, 8A, 9A, 10A, 11A
PDE7B, sequence (Q9NP56 107-450 limits assumed): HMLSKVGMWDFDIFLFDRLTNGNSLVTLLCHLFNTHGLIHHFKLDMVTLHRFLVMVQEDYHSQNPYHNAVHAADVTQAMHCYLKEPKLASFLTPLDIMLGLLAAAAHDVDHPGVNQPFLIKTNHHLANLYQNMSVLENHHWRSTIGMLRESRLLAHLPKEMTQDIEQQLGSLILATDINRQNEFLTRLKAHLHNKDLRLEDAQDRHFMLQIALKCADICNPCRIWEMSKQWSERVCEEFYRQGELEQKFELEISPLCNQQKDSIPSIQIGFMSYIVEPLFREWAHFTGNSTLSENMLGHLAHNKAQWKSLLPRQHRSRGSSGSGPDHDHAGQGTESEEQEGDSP

PDE1B = PDE1B (Homo sapiens (Human), UniProt Q01064); assay: PDE selectivity SPA assay, PDE1B; assay type: biochemical; details: IC50 against PDE1B divided by IC50 against PDE7A
PDE1B, sequence (Q01064 whole entry): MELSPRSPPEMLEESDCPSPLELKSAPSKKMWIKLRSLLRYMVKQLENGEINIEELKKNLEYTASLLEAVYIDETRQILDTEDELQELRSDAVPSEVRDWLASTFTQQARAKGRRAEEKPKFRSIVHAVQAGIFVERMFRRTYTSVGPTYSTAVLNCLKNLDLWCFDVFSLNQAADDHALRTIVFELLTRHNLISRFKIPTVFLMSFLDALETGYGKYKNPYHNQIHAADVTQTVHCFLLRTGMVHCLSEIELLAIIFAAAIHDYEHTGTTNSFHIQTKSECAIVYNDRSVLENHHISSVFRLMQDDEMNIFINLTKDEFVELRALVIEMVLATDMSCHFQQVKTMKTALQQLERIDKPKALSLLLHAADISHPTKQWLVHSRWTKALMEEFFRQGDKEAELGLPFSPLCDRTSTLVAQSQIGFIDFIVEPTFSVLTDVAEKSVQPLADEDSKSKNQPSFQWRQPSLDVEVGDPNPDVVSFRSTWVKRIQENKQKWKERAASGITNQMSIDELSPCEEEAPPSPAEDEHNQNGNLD
Method: as §1, §2, §3, §4

PDE3A = PDE3A (Homo sapiens (Human), UniProt Q14432); assay: PDE selectivity SPA assay, PDE3A; assay type: biochemical; details: IC50 against PDE3A divided by IC50 against PDE7A
PDE3A, sequence (Q14432 whole entry): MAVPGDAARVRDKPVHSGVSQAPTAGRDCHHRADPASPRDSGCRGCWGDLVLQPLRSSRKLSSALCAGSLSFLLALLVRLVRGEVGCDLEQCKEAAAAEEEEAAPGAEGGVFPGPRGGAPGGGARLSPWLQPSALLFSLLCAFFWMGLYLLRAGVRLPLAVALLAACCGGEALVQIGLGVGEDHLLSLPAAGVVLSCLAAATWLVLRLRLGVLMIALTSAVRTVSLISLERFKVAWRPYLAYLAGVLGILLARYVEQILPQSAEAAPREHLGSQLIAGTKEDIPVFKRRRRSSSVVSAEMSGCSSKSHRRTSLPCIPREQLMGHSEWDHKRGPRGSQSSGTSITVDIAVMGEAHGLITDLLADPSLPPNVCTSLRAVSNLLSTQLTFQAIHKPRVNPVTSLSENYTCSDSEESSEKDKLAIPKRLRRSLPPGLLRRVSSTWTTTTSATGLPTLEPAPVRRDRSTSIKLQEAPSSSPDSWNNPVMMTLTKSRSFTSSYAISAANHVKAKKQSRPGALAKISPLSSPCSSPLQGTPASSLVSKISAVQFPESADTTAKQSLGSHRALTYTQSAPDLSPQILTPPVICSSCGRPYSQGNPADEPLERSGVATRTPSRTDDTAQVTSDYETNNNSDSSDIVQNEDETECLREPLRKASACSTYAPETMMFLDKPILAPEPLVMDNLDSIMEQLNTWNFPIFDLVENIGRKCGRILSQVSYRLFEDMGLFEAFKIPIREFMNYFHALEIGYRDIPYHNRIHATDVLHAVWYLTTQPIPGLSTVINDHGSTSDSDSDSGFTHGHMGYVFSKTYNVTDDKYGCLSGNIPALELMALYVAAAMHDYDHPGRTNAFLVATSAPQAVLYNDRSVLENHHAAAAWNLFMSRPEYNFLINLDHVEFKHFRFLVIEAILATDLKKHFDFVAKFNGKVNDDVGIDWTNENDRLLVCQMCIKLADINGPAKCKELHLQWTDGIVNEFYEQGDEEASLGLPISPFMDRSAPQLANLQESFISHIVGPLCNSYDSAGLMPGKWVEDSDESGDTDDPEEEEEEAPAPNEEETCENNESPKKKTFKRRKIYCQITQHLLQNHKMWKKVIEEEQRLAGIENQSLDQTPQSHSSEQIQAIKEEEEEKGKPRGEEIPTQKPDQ

PDE4A = PDE4A (Homo sapiens (Human), UniProt P27815); assay: PDE selectivity SPA assay, PDE4A; assay type: biochemical; details: IC50 against PDE4A divided by IC50 against PDE7A
PDE4A, sequence (P27815 whole entry): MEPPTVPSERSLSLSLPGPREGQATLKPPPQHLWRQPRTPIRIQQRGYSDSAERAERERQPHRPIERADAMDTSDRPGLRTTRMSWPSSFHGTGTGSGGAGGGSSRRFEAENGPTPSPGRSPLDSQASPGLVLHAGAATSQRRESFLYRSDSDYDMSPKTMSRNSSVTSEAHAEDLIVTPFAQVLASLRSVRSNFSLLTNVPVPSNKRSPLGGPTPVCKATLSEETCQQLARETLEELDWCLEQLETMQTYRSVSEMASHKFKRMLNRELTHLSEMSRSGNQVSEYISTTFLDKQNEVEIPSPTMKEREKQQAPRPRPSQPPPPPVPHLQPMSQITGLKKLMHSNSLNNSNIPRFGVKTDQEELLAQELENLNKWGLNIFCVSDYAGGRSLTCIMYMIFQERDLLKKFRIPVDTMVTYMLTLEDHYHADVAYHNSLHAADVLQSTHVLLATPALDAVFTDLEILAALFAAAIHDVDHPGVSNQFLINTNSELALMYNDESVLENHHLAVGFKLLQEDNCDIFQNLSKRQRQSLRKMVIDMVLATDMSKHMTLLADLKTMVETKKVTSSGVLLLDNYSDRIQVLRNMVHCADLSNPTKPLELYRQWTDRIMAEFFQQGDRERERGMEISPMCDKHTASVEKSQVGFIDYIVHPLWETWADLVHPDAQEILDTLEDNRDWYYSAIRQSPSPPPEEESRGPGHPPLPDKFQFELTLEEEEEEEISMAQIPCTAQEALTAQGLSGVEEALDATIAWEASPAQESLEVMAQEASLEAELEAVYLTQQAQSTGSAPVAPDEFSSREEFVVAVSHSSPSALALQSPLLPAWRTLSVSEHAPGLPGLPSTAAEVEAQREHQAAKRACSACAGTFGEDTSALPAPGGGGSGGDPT
Method: as §1, §2, §3, §4

PDE10A = PDE10A (Mus musculus (Mouse), UniProt Q8CA95); assay: PDE selectivity SPA assay, PDE10A; assay type: biochemical; details: IC50 against murine PDE10A divided by IC50 against PDE7A
PDE10A, sequence (Q8CA95 whole entry): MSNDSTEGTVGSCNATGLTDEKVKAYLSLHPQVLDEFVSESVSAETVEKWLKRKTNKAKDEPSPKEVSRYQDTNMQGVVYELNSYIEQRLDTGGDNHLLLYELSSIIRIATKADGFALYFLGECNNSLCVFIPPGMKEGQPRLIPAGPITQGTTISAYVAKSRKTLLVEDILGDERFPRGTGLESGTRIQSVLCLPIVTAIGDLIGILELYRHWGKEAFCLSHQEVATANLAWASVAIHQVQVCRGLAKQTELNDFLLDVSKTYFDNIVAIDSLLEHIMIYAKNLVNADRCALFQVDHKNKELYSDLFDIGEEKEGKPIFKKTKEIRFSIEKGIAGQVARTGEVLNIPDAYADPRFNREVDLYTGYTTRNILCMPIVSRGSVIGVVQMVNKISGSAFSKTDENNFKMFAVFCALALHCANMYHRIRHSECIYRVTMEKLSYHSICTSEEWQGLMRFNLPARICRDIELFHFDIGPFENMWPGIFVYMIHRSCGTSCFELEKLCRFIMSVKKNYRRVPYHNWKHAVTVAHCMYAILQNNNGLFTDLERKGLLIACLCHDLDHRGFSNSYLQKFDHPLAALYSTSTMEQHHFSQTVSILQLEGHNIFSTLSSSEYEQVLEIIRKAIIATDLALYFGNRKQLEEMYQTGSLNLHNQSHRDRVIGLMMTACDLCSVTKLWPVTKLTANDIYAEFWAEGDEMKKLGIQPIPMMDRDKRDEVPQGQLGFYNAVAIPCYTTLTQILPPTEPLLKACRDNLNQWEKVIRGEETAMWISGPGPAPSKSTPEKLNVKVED
Method: as §1, §2, §3, §4

Dopamine D5 receptor = Dopamine D5 receptor (Homo sapiens (Human), UniProt P21918); assay: Dopamine D5 radioligand binding assay; details: 10.0 μM
Adenosine A2A receptor = Adenosine A2A receptor (Homo sapiens (Human), UniProt P29274); assay: Adenosine A2A receptor radioligand binding assay
Adenosine A2A receptor, sequence (P29274 whole entry): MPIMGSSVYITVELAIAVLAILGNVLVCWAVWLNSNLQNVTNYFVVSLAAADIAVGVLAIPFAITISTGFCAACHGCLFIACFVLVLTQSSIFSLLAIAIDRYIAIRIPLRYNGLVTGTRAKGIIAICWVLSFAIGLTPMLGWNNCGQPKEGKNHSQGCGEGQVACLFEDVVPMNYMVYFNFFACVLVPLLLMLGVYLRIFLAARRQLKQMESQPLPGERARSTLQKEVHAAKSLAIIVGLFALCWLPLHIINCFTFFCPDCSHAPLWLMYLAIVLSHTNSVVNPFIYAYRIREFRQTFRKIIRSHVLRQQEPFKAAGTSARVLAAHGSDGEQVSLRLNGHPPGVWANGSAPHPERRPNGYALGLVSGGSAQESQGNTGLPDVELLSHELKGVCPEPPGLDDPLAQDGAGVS
Method: An Adenosine A2A receptor radioligand binding assay was carried out as described in Varani, K., et al., Br. J. Pharmacol. 117:1693-1701, 1996, with the following modifications. Human recombinant A2A receptor was expressed in HEK-293 cells. The ligand used in the assay was 0.05 μM [^3H]CGS-21680. The non-specific ligand was 50 μM NECA. The vehicle control was 1% DMSO. Compound OM69 was tested at 10 μM in incubation buffer (50 mM Tris-HCL, pH 7.4, 10 mM MgCl2, 1 mM EDTA, 2 U/mL Adenosine Deaminase). The reaction was incubated for 90 minutes at 25° C. Radioligand binding was quantitated. […]

[2] = mouse, 1.0 mg/kg IP, 15 minutes
[3] = mouse, 1.0 mg/kg IP, 30 minutes post injection

PDE2A, sequence (O00408 whole entry): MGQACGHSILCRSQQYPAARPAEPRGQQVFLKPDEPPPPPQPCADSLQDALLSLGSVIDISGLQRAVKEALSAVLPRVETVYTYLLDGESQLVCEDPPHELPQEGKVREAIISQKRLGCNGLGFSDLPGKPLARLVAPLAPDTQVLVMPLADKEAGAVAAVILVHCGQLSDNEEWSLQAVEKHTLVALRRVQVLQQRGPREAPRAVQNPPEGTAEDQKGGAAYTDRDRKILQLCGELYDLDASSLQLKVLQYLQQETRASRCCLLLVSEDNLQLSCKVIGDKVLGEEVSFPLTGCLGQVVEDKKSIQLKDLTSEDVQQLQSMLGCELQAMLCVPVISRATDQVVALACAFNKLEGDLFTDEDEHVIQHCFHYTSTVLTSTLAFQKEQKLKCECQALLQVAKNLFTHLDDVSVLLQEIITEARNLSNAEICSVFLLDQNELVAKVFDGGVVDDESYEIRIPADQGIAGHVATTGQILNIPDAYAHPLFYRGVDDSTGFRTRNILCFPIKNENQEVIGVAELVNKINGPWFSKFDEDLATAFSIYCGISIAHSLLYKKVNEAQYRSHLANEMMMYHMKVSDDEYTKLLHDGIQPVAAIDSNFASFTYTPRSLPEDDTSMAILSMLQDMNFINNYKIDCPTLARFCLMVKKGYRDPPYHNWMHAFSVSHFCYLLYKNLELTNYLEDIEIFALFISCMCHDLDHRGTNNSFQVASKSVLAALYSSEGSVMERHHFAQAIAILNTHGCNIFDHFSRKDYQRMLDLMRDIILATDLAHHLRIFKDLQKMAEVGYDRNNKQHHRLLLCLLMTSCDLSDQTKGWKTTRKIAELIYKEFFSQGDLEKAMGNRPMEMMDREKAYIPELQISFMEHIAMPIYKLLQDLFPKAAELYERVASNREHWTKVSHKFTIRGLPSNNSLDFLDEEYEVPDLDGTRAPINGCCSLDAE

| Compound | Fold Selectivity for PDE7A versus PDE2A (PDE2A) | Fold Selectivity for PDE7A versus PDE5A (PDE5A) | IC50 (PDE7B) | potency of PDE7B inhibition, in words (PDE7B) | Fold Selectivity for PDE7A versus PDE7B (PDE7B) | 7A/7B Ratio (PDE7B) | selectivity for inhibition of the PDE7B enzyme as compared to the other PDEs (PDE7B) | Fold Selectivity for PDE7A versus PDE1B (PDE1B) | Fold Selectivity for PDE7A versus PDE3A (PDE3A) | Fold Selectivity for PDE7A versus PDE4A (PDE4A) | Fold Selectivity for PDE7A versus PDE10A (PDE10A) | other results |
| --- | --- | --- | --- | --- | --- | --- | --- | --- | --- | --- | --- | --- |
| O=C1Nc2c(Cl)ccc(OCCO)c2C2(CCCCC2)N1 [OM955] | 209 fold | 355 fold | 106 nM | moderate potency | 2.0 fold | 2.05 | greater than 50 fold | 342 fold | >192 fold | 113 fold | 379 fold | maximal brain concentration at dose where efficacy was observed ([1]; mouse, at 0.5 mg/kg, analogous calculation): 292 nM |
| COc1cc(N)ccc1-c1cc2c(c(=O)[nH]1)C(C1CCCCC1)N=[N+]2C (centres unmarked) [OM69] | 11,100 fold | 4630 fold | 4.8 nM | high potency | 3.7 fold | 3.69 | 250 fold | 29,608 fold | 8170 fold | 6500 fold | 1050 fold | brain tissue concentration [1, 2]: 25 ng/g; plasma concentration [1, 2]: 51 ng/g; peak brain level [1, 3]: 44 ng/g; peak plasma level [1, 3]: 59 ng/g; brain to plasma ratios ([1]; mouse, 1.0 mg/kg IP, all time points with levels above the lower limit of quantitation): 45-75%; brain concentration converted to molar ([1]; mouse, 30 minutes after injection of a 1 mg/kg dose): 124 nM; Ratio of Total Brain Exposure/Total Plasma Exposure ([1]; mouse, IP, AUC brain / AUC plasma, 1.0 mg/kg OM69, 10.0 mg/kg OM056, 30.0 mg/kg OM955 and OM956): 0.78; expected maximal brain concentration ([1]; mouse, dose of 0.1 mg/kg, assuming linearity of uptake and uniform brain distribution): 12.4 nM; time to wash out of mice ([1]; previously determined from pharmacokinetic studies): ≤ 12 h; percent inhibition of ligand binding to Dopamine D5 (Dopamine D5 receptor): 4.0%; percent inhibition of ligand binding to Adenosine A2A Receptor (Adenosine A2A receptor; 10.0 μM): 41%; percent occupation of A2A receptors (Adenosine A2A receptor; brain level 8.5 to 17 nM (dose 0.1 mg/kg), using IC50 of 10 μM): about 0.17% |
